In test [1] the test system is MCF10A cells. Nature of the test: Flow cytometry of cell cycle distribution and DNA synthesis (EdU/DAPI). The settings on record: for cell cycle distribution: 24 hours. Format: cell-based, human. The procedure:
(c) A typical profile obtained by flow cytometry of MCF10A cells labelled with EdU and DAPI that indicates the gating applied in order to determine the percentage of cells with sub-G1 DNA content (sub-G1), G1 cells (G1), replicating early-mid S phase cells (Early-Mid S/EdU+), replicating mid-late S phase cells (Mid-Late S/EdU+), cells with S phase DNA content but not replicating (2n<& <4n/EdU−), and cells either in G2 or mitosis (G2/M).(d-f) MCF10A cells were mock treated or treated with 10 μM XL413, in the presence or absence of increasing concentrations of the CDK8 inhibitor BI-1347, for 24 hours. (d) Cells were labelled with EdU for last 30 minutes and DNA synthesis, DNA content and cell cycle distribution were assessed by flow cytometry and analysed using the gating strategy described in above (FIG. 2c). (e) Distribution of cells in the cell cycle. (f) Fluorescence intensity, proportional to EdU incorporation, in individual S phase cells. Long and short horizontal black lines indicate the median and the interquartile range, respectively, extending from the 25th to the 75th percentile for ˜3,810 cells for each condition. Data is from a single experiment.
FIG. 3: CDK8 activity is required for efficient DNA synthesis under conditions of limited CDC7 kinase activity (a-c) MCF10A cells were mock treated or treated with 31 nM BI-1347, in the presence or absence of increasing concentrations of the CDC7 inhibitors, XL413 (a-c) and TAK-931 (d-f), for 24 hours. (a and d) Cells were labelled with EdU for last 30 minutes and DNA synthesis, DNA content and cell cycle distribution were assessed by flow cytometry and analysed using the gating strategy described in FIG. 2c.c (b and e) distribution of cells in the cell cycle. (c and f) Fluorescence intensity, proportional to EdU incorporation, in individual S phase cells. Long and short horizontal black lines indicate the median and the interquartile range, respectively, extending from the 25th to the 75th percentile for ˜4,190 cells for each condition. Data is from a single experiment.
To analyse the cell cycle and DNA synthesis, nascent DNA was labelled by incubating cells with 10 μM EdU for either 20 or 30 minutes prior to harvest, washing with PBS, and then by resuspension in PBS containing 70% EtOH for 1 hour at −20° C. After a PBS wash, incorporated EdU was labelled by incubating cells in click reaction buffer (PBS containing 10 μM 6-Carboxyfluorescine-TEG-azide, 10 mM Sodium-L-ascorbate, 2 mM Copper-II-Sulphate) for 30 minutes protected from light. Cells were washed in PBS containing 1% BSA, 5% Tween 20 and then DNA stained in PBS containing 1% BSA and 1 μg/ml DAPI. All washes involve: centrifugation at 400×g for 5 minutes, removal of supernatant from pellet, resuspension in the appropriate buffer, recentrifugation and removal of supernatant from the pellet prior to the next step.
Fluorescence intensity data for 6-Carboxyfluorescine (488_530_30 nm) and DAPI (405_450_50 nm) were acquired for 10,000 single cells on a BD FACS Canto II and analysed using FlowJo software. To further analyse fluorescence intensity, proportional to EdU incorporation, for individual cells, gates were applied on DAPI-EdU biparametric dot plots to select for EdU positive S phase cells using FlowJo. According to the required analysis these gates included either all S phase cells, or only early or late S phase cells. Fluorescence intensity (488_530_30) values per cell were exported and plotted as scatter dot plots using GraphPad prism. For comparisons of mean fluorescence intensity of a cell population across three biological repeat experiments, all fluorescence intensity values were normalised to the maximum fluorescence intensity of the untreated control sample of each respective experiment to account for absolute differences in EdU staining. […]

Test [2] concerns MCF10A cells. Kind of test: Long-term cell proliferation assay, crystal violet staining. Format: cell-based, human. Particulars: 7 days. The procedure: (a and b) MCF10A cells were plated at equal low density and then either mock treated or treated with 31 nM BI-1347, in the presence or absence of XL413 at a doses of (a) 1.25 μM or (b) 10 μM over a 7 day period. Representative images of crystal violet-stained cells are shown alongside quantitation of crystal violet intensity normalised to the untreated control.
Briefly, MCF10A cells were mock-treated or treated in the continued presence of a dual-specificity CDK8/CDK19 inhibitor, BI-1347, in the presence or absence of XL413 at two different concentrations (1.25 μM and 10 μM) for a 7-day period. Relative cell proliferation was estimated by staining cells with crystal violet and measuring staining intensities. […] Importantly the addition of BI-1347 to XL413 caused a further reduction in cell number with staining intensity decreasing by 70% and 95% respectively.
MCF10A cells were seeded at 4,000 cells per well of a 6 well plate and after 24 hours were treated with inhibitors before being incubated for 7 days at 37° C. with 5% CO2. Media was removed from the cells which were then washed with PBS and air dried before being fixed with 100% methanol for 1 hour. Following removal of methanol the plates were air-dried, stained with crystal violet staining solution (0.2% crystal violet, 25% methanol) for 1 hour at room temperature, washed with ddH2O and air-dried. Plates were scanned using a HP Scanjet 4050, to generate images of crystal violet stained cells, and crystal violet staining intensity was acquired using the Odyssey infrared imaging system and Image Studio software (LI-COR Biosciences).

Entries after “also recorded” stand apart in the source; their conditions may differ.

As for `Cl.O=c1[nH]c([C@@H]2CCCN2)nc2c1oc1ccc(Cl)cc12` [XL413], the “rate of DNA synthesis” value in the test with MCF10A cells [1] is “strongly reduced; also recorded: much more profound decrease”. In the test with MCF10A cells [1], the “rate of DNA synthesis of S phase cells” value was “corresponding decrease”. The cell cycle distribution result in the test on MCF10A cells [1] (10 μM XL413 alone) is “accumulation of cells in mid to late S phase”; in the test on MCF10A cells [1] (CDC7 inhibitor alone at increasing concentrations, absence of CDK8/CDK19i), “dose-dependent accumulation of mid-late S phase cells”; in the test with MCF10A cells [1] (CDC7 inhibitor at increasing concentrations together with the CDK8/CDK19 inhibitor (31 nM BI-1347), all doses tested), “more pronounced accumulation of cells in mid-late S phase”. Moreover, the “relative intensity reduction (crystal violet)” value in the test with MCF10A cells [2] (1.25 μM XL413 alone) is reported as roughly 15%; with MCF10A cells [2] (10 μM XL413 alone), 70%.
